Assay results taken from PubChem BioAssay (NCI).
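Briefly, cells in 96-well plates were exposed to five compound concentrations for 48 h, and endpoints were estimated by linear interpolation. Here, GI50 denotes the concentration required for 50% inhibition of growth. The concentration for full growth arrest is given as TGI.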

Legend:
Test in all cases: growth of human tumour cells (NCI), 48 h
SNB-78 CNS = test system: SNB-78 CNS
KM20L2 colon = test system: KM20L2 colon
SR leukemia = test system: SR leukemia
K-562 leukemia = test system: K-562 leukemia
NCI-H522 lung = test system: NCI-H522 lung
A498 renal = test system: A498 renal
M14 melanoma = test system: M14 melanoma
NCI/ADR-RES ovarian = test system: NCI/ADR-RES ovarian
DU-145 prostate = test system: DU-145 prostate
PC-3 prostate = test system: PC-3 prostate

Row | SMILES | GI50 (SNB-78 CNS) | TGI (SNB-78 CNS) | GI50 (KM20L2 colon) | TGI (KM20L2 colon) | TGI (SR leukemia) | GI50 (K-562 leukemia) | TGI (K-562 leukemia) | GI50 (NCI-H522 lung) | TGI (NCI-H522 lung) | GI50 (A498 renal) | TGI (A498 renal) | GI50 (M14 melanoma) | TGI (M14 melanoma) | TGI (NCI/ADR-RES ovarian) | TGI (DU-145 prostate) | TGI (PC-3 prostate) | GI50 (SR leukemia) | GI50 (NCI/ADR-RES ovarian) | GI50 (DU-145 prostate) | GI50 (PC-3 prostate)
1 | CC[C@@]1(O)C(=O)OCc2c1cc1n(c2=O)Cc2cc3c([N+](=O)[O-])c(O)ccc3nc2-1 | 6.6 µM | > 100 µM | 1.97 µM | 38.4 µM | < 0.0215 µM | 0.84 µM | > 100 µM | 0.132 µM | 3.07 µM | 0.915 µM | 5.66 µM | 0.188 µM | 2.47 µM | – | – | – | – | – | – | –
2 | CN1CCN2c3ccccc3CC(C#N)(C#N)C2C1 (configuration not stated) | – | > 100 µM | – | > 100 µM | – | – | > 100 µM | – | > 100 µM | – | > 100 µM | – | > 100 µM | – | – | – | – | – | – | –
3 | CN(C(=N)c1ccccc1)c1ccccc1 | – | > 100 µM | – | > 100 µM | – | – | > 100 µM | – | – | – | – | – | > 100 µM | – | – | – | – | – | – | –
4 | CC(C)(C)c1cc(O)c2c(c1O)C(=O)CCC2 | – | > 100 µM | – | > 100 µM | – | – | > 100 µM | – | – | – | > 100 µM | – | > 100 µM | – | – | – | – | – | – | –
5 | COC(=O)CCC(=O)Nc1cccc(C(F)(F)F)c1 | – | > 100 µM | – | > 100 µM | – | – | > 100 µM | – | > 100 µM | – | > 100 µM | – | > 100 µM | – | – | – | – | – | – | –
6 | COc1ccc2c(c1)[n+]([O-])c(/C(C)=N/NC(N)=S)c(C)[n+]2[O-] | – | > 100 µM | – | > 100 µM | 61.5 µM | – | > 100 µM | – | > 100 µM | – | > 100 µM | – | > 100 µM | 96.5 µM | > 100 µM | > 100 µM | – | – | – | –
7 | Cc1ccc2oc(=O)cc(CC(=O)O)c2c1 | – | – | – | > 100 µM | – | – | > 100 µM | – | > 100 µM | – | > 100 µM | – | > 100 µM | – | – | – | – | – | – | –
8 | O=C1C[C@@H]2[C@@H](C=CC23CC3)N1O | – | > 100 µM | – | > 100 µM | – | – | > 100 µM | – | > 100 µM | – | > 100 µM | – | > 100 µM | – | – | – | – | – | – | –
9 | CCOC(=O)NC(=O)c1cn(CC(=O)NCC(=O)NCC(=O)N2CCN(CCn3c(C)nc(C(N)=O)c3N)CC2)c(=O)[nH]c1=O | – | > 100 µM | – | > 100 µM | > 100 µM | – | > 100 µM | – | – | – | > 100 µM | – | > 100 µM | – | – | – | – | – | – | –
10 | NC(N)=NS(=O)(=O)c1ccc(NC(=O)c2cccn3c(=O)c4ccccc4nc23)cc1 | – | > 100 µM | – | 63.7 µM | 84.3 µM | – | 90.1 µM | – | > 100 µM | – | > 100 µM | – | > 100 µM | – | – | – | – | – | – | –
11 | CCCCN1C(=O)C2c3[nH]c4ccccc4c3C3CCCCC3C2C1=O (mixture of isomers) | – | 50 µM | – | > 100 µM | – | – | 28.3 µM | – | – | – | – | – | 42.8 µM | – | – | – | – | – | – | –
12 | C=C(c1ccccc1)[C@@]1(O)CCCC[C@H]1NC(c1ccccc1)c1ccccc1 | – | 50.7 µM | – | 43.5 µM | 6.98 µM | – | 29.1 µM | – | 21.6 µM | – | 27.7 µM | – | 27.6 µM | – | – | – | – | – | – | –
13 | COc1ccc(C(=C(C#N)C#N)c2ccc(OC)cc2)cc1 | – | > 100 µM | – | > 100 µM | > 100 µM | – | > 100 µM | – | > 100 µM | – | > 100 µM | – | > 100 µM | – | – | – | – | – | – | –
14 | OCC(O)C(O)C(O)c1nn[nH]n1 (configuration not stated) | – | > 100 µM | – | – | > 100 µM | – | > 100 µM | – | > 100 µM | – | – | – | > 100 µM | – | – | – | – | – | – | –
15 | Cc1cc(Cl)ccc1NC(=O)C1C(=O)C(=O)N(c2ccc(Cl)cc2C)C1=O (configuration not stated) | – | > 100 µM | – | > 100 µM | – | – | > 100 µM | – | > 100 µM | – | > 100 µM | – | > 100 µM | – | – | – | – | – | – | –
16 | O=C1C2c3[nH]c4ccccc4c3C3CCC(c4ccccc4)CC3C2C(=O)N1c1ccccc1 (configuration not stated) | – | > 100 µM | – | – | > 100 µM | – | > 100 µM | – | – | – | – | – | > 100 µM | – | – | – | – | – | – | –
17 | COC(=O)c1ccc(CS(=O)(=O)c2ccccc2)cc1 | – | > 100 µM | – | > 100 µM | > 100 µM | – | > 100 µM | – | – | – | – | – | > 100 µM | – | – | – | – | – | – | –
18 | COc1ccc2c(c1)O/C(=C\c1ccc([N+](=O)[O-])o1)C2=O | – | – | – | – | 0.964 µM | 0.352 µM | 1.91 µM | 1.25 µM | 2.57 µM | 1.74 µM | 4.54 µM | 1.64 µM | 3.74 µM | > 30.1 µM | 7.94 µM | > 25.5 µM | 0.178 µM | 2.74 µM | 0.775 µM | 2.14 µM
19 | CCCCCCCCCCCCCCCCSS(C)(=O)=O | – | – | – | > 66.1 µM | 21.1 µM | – | 27.9 µM | – | 11 µM | – | > 97.2 µM | – | 25.2 µM | 7.05 µM | > 100 µM | > 100 µM | – | – | – | –
20 | CCC1CCC2C3CC=C4CC(OC(C)=O)C(N)CC4(C)C3CCC12C (configuration not stated) | – | – | – | – | 6.07 µM | – | 4.91 µM | – | 6.67 µM | – | 9.63 µM | – | 3.6 µM | 14.2 µM | 8.33 µM | 7.97 µM | – | – | – | –
21 | COc1cccc(-c2cc(C(=O)Nc3ccc(Cl)cc3)nc(N)n2)c1 | – | > 100 µM | – | > 100 µM | > 100 µM | – | > 100 µM | – | > 100 µM | – | > 100 µM | – | > 100 µM | – | – | – | – | – | – | –
22 | Clc1cc(Cl)cc(C2SCc3nc4ccccc4n32)c1 (configuration not stated) | – | 60.1 µM | – | – | > 100 µM | – | 25.2 µM | – | 39.3 µM | – | – | – | – | – | – | – | – | – | – | –
23 | O=c1[nH]ccc2nc(N3CCC(O)CC3)nc(Nc3ccc(N4CCOCC4)cc3)c12 | – | – | – | – | > 100 µM | > 100 µM | > 100 µM | > 100 µM | > 100 µM | 1.49 µM | 9.77 µM | 0.351 µM | > 100 µM | > 100 µM | > 100 µM | > 100 µM | 3.14 µM | > 100 µM | 2.95 µM | > 100 µM
24 | COc1ccccc1CN=C1NC(=O)/C(=C/c2ccc3ncccc3c2)S1 | – | – | – | – | > 17.9 µM | 8.4 µM | > 25 µM | 4.96 µM | 13 µM | 4.49 µM | 15.8 µM | 14.5 µM | > 25 µM | > 25 µM | > 25 µM | > 25 µM | 1.87 µM | 11.2 µM | 11 µM | 18.5 µM
25 | O=C(NCCN1CCOCC1)Nc1nc2ccc(Sc3nnc4ccc(-c5ccc(F)cc5)nn34)cc2s1 | – | – | – | – | > 100 µM | 2.31 µM | > 100 µM | 26.4 µM | > 100 µM | 80.6 µM | > 100 µM | – | > 38.8 µM | > 100 µM | > 100 µM | > 100 µM | 5.04 µM | > 100 µM | > 100 µM | > 100 µM
